Measurements as given in patent US20150368213A1, “Novel Inhibitors of System Xc-” (The University of Montana, Missoula, MT, priority 2014, published 2015).
Like-named read-outs stand apart in the source and are kept apart here.

Target: T1, System xc− (Sxc−, glutamate/cystine antiporter) (Homo sapiens, UniProt Q9UPY5)
T1 construct: A number of glioma cell lines, including SNB-19, express markedly higher levels of Sxc^−; host or cells: SNB-19 human glioma cells
T1 sequence (Q9UPY5 1-501): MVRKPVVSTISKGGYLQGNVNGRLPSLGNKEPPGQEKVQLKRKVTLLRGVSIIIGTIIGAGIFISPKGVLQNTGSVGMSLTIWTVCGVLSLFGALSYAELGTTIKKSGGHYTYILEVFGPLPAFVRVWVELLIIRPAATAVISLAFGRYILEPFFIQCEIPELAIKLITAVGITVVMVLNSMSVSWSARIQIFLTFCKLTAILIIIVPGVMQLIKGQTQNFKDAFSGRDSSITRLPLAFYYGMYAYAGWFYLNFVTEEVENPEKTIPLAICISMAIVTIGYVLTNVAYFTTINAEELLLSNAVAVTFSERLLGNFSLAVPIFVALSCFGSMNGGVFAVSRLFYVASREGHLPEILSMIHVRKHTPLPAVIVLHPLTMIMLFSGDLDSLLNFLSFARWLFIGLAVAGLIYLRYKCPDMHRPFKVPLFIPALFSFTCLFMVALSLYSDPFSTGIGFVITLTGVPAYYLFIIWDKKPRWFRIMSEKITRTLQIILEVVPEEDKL
T1 sequence (P08195 1-529 partner): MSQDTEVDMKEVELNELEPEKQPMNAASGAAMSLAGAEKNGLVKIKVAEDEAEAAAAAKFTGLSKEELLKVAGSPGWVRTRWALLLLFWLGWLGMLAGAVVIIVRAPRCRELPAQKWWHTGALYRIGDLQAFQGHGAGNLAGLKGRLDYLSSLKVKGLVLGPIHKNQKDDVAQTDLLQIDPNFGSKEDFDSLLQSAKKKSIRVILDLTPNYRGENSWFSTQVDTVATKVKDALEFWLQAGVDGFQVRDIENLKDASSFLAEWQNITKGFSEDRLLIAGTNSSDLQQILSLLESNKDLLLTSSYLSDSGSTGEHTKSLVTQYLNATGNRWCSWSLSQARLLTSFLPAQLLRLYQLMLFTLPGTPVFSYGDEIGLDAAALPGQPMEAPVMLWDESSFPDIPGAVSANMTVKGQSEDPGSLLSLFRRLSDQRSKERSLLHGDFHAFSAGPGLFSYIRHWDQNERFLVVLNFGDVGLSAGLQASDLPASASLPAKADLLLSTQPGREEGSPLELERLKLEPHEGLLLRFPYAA
Experiment: Inhibition of 3H-L-Glu uptake into SNB-19 glioma cells under Cl-dependent (Na-free) conditions
Type: cell-based
Details: for 3H-L-Glu Uptake (% control): 100 μM 3H-L-Glu, smaller number = greater inhibition; for inhibitory activity, ranking among compounds of Table 1: comment on Table 1
Protocol: SNB-19 glioma cells, purchased from American Type Culture Collection (Manassas, Va.), were grown in DMEM/F-12 medium (pH 7.4) containing 1 mM pyruvate and 16 mM NaHCO3 and supplemented with 10% fetal calf serum. The cells were cultured in 150 cm^2 flasks (Corning) and maintained at 37° C. in a humidified atmosphere of 5% CO2. In the ^3H-L-Glu uptake experiments, cells were seeded in 12 well culture plates (Costar) at a density of 5×10^4 cells/well and maintained for 3 days until 80-90% confluent. Protein concentrations were determined by the bicinchoninic acid (BCA) method (Pierce).
Uptake of ^3H-L-Glu into cultured cells was quantified using a modification of the procedure of Martin and Shane as previously described by Patel et al. (supra). Briefly, after removal of culture media, wells were rinsed three times and pre-incubated in 1 ml Na^+-free HEPES buffered (pH 7.4) Hank's balanced salt solution (HBHS) at 30° C. for 5 min. The Nat free buffer contained: 137.5 mM choline Cl, 5.36 mM KCl, 0.77 mM KH2PO4, 0.71 mM MgSO^4.7H2O, 1.1 mM CaCl2, 10 mM D-glucose, and 10 mM HEPES. Uptake was initiated by aspiration of the pre-incubation buffer and the addition of a 500 gl aliquot of Na^+-free transport buffer containing ^3H-L-Glu (4-16 mCi/m1) mixed with L-Glu (10-500 μM, final concentration). In those assays that evaluated inhibitor activity, the 500 gl aliquot of transport buffer contained both the ^3H-L-Glu and potential inhibitors to ensure simultaneous addition. Following a 5 min incubation at 30° C., the assays were terminated by three sequential 1 ml washes with ice cold buffer after which the cells were dissolved in 1 ml of 0.4 M NaOH for 24 h. An aliquot (200 μl) was then transferred into a 5 ml glass scintillation vial and neutralized with the addition of 5 gl glacial acetic acid followed by 3.5 ml Liquiscint© scintillation fluid (National Diagnostics) to each sample. Incorporation of radioactivity was quantified by liquid scintillation counting (LSC, Beckman LS 6500). Values are reported as mean±S.E.M. and are corrected for non-specific uptake (e.g., leakage and binding) by subtracting the amount of ^3H-L-Glu accumulation at 4° C.
The inhibitory activity of the compounds was determined by quantifying the ability of the analogues to reduce the accumulation of ^3H-L-Glu into human SNB-19 glioblastoma cells under Cl-dependent (Na-free) conditions. A number of glioma cell lines, including SNB-19, express markedly higher levels of Sxc^− and reduced levels of the sodium-dependent excitatory amino acid transporters (“EAATs”) than do primary astrocytes, making them well suited for pharmacological assays (Ye et al., Compromised glutamate transport in human glioma cells: reduction-mislocalization of sodium-dependent glutamate transporters and enhanced activity of cystine-glutamate exchange, J Neurosci, 1999 Dec. 15, 19(24), 10767-77). The compounds of the invention were initially screened at a single concentration of substrate (100 μM ^3H-L-Glu) and isoxazole (500 μM) to confirm inhibitory activity. […] (The data are reported as % of control uptake, thus the smaller the number the greater the level of inhibition.)
A slope replot for 5-4-TFM-Benzyl-4-bis-TFM-HMICA is included in FIG. 3, (average Ki=3±1 μM, n=5). […] In the instance of 5-4-TFM-Benzyl-4-bis-TFM-HMICA the replot of I/Vmax,apparent vs. [I] was indeed linear and yielded a Ki of about 8 μM (plots not shown). […] As the identification of the di-substituted isoxazoles as noncompetitive inhibitors was unexpected, the kinetic data was also analyzed using the Eadie-Hofstee method as a second graphical approach.

[1] = SNB-19 cells, 3H-L-Glu uptake, read-out: KI 3H-L-Glu Uptake

| Structure (SMILES) | 3H-L-Glu Uptake (% control) (compound 100 μM, SNB-19 cells) | 3H-L-Glu Uptake (% control) (compound 500 μM, SNB-19 cells) | inhibition of the System Xc- antiporter, in words (statement in the crystal structure description) | Ki [1] [µM] | pattern (mechanism) of inhibition (Michaelis-Menten, LWB and Eadie-Hofstee analyses, FIGS. 1-4) | Ki (replot of LWB graphs, plots not shown, read-out: Ki from 1/Vmax,apparent vs. [I] replot) [µM] | Ki (slope replot (FIG. 3), n=5, read-out: average Ki from LWB slope vs. [I] replot) [µM] | inhibitory activity, ranking among compounds of Table 1 |
| --- | --- | --- | --- | --- | --- | --- | --- | --- |
| COc1ccc2ccccc2c1-c1noc(C)c1C(=O)NC(Cc1cc(Br)c(O)c(Br)c1)C(=O)O (centres unmarked) [MOI-16, 3-(3,5-dibromo-4-hydroxyphenyl)-2-(5-methyl-3-(2-methoxynaphthalen-1-yl)isoxazole-4-carboxamido)propanoic acid] | 32 | 8 | potent inhibitor | – | – | – | – | – |
| CN(C)c1cccc2c(S(=O)(=O)NC(Cc3cc(Br)c(O)c(Br)c3)C(=O)O)cccc12 (centres unmarked) [Danzyl-DBT, 3-(3,5-dibromo-4-hydroxyphenyl)-2-(5-(dimethylamino)naphthalene-1-sulfonamido)propanoic acid] | 52 | – | – | 25 | – | – | – | – |
| C/C(=N\Nc1cc(C(F)(F)F)cc(C(F)(F)F)c1)c1c(C(=O)O)noc1Cc1ccc(C(F)(F)F)cc1 [5-4-TFM-Benzyl-4-bis-TFM-HMICA] | 14 | – | – | – | noncompetitive inhibition | ~8 | 3 ± 1 | – |
| Cc1onc(-c2cccc3ccccc23)c1C(=O)NC(Cc1cc(Br)c(O)c(Br)c1)C(=O)O (centres unmarked) [LC-19, 3-(3,5-dibromo-4-hydroxyphenyl)-2-(5-methyl-3-(naphthalen-1-yl)isoxazole-4-carboxamido)propanoic acid] | 23 | 6 | – | – | – | – | – | – |
| Cc1onc(-c2c3ccccc3c(Cl)c3ccccc23)c1C(=O)NC(Cc1cc(Br)c(O)c(Br)c1)C(=O)O (centres unmarked) [AIM-DBT, 2-(3-(10-chloroanthracen-9-yl)-5-methylisoxazole-4-carboxamido)-3-(3,5-dibromo-4-hydroxyphenyl)propanoic acid] | 8 | – | – | 15 | – | – | – | greatest inhibitory activity |
| Cc1onc(-c2c(OCc3ccccc3)ccc3ccccc23)c1C(=O)N[C@@H](Cc1cc(Br)c(O)c(Br)c1)C(=O)O [Compound 3ND-101, (2S)-2-(3-(2-(benzyloxy)naphthalen-1-yl)-5-methylisoxazole-4-carboxamido)-3-(3,5-dibromo-4-hydroxyphenyl)propanoic acid] | 8 | 1 | – | – | – | – | – | greatest inhibitory activity |
